In this assay the target is JAK1 (Homo sapiens (Human), UniProt P23458). The assay can be described thus: Jak Biochemical HTRF Assay, JAK1. Conditions: HTRF biochemical assay, GST-tagged catalytic domain; top concentration tested […]; read-out: JAK1 IC50. The text has this:
Jak Biochemical HTRF Assay Protocol
Subsequent reagent additions employed an Agilent Bravo.

22 compounds from US9328099B2, “Cyanomethylpyrazole carboxamides as janus kinase inhibitors” (Merck Sharp & Dohme Corp., priority 2011, dated 2016) can be followed below.

Structures are written as SMILES.

Sequence of JAK1 (P23458 875-1153): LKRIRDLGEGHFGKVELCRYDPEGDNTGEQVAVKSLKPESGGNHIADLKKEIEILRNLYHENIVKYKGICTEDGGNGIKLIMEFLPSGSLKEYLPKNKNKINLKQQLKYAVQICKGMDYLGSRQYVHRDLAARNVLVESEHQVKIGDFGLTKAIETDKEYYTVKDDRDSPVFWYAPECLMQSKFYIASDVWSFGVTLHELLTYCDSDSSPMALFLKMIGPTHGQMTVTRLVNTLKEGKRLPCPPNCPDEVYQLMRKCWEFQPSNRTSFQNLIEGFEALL

`N#CC[C@]1(n2cc(C(N)=O)c(Nc3ccnc(F)c3)n2)CC[C@@H](NS(=O)(=O)c2cccc(F)c2)CC1` [Example 42, cis-1-(1-(Cyanomethyl)-4-(3-fluorophenylsulfonamido)cyclohexyl)-3-((2-fluoropyridin-4-yl)amino)-1H-pyrazole-4-carboxamide]: the IC50 was 8 nM. With `N#CCC1(n2cc(C(N)=O)c(Nc3ccccc3)n2)CCN(Cc2cccc(C#N)c2)CC1` [Example 21-3, 1-[1-(3-cyanobenzyl)-4-(cyanomethyl)piperidin-4-yl]-3-(phenylamino)-1H-pyrazole-4-carboxamide], the concentration for half-maximal inhibition (IC50) turned out to be 79 nM.

For the compound `N#CCC1(n2cc(C(N)=O)c(Nc3ccc(F)cc3)n2)CCC(Nc2cc(F)ccc2F)CC1` (stereo not drawn) [Example 40-50, Cis and trans 1-{1-(cyanomethyl)-4-[(2,5-difluorophenyl)amino]cyclohexyl}-3-[(4-fluorophenyl)amino]-1H-pyrazole-4-carboxamide], the concentration for half-maximal inhibition (IC50) stood at 0.1 nM. Regarding `CC(C)(C)OC(=O)N1CCC(CC#N)(n2cc(C(N)=O)c(Nc3ccnc(C(N)=O)c3)n2)CC1` [Example 9-27, tert-butyl 4-{4-carbamoyl-3-[(2-carbamoylpyridin-4-yl)amino]-1H-pyrazol-1-yl}-4-(cyanomethyl)piperidine-1-carboxylate], the concentration for half-maximal inhibition (IC50) worked out at 0.4 nM. Regarding `CC(F)(F)C(=O)N1CC[C@](CC#N)(n2cc(C(N)=O)c(Nc3ccc(F)nc3)n2)[C@H](F)C1` (single isomer, unassigned) [Example 43-3, 1-((3R,4R or 3S,4S)-4-(cyanomethyl)-1-(2,2-difluoropropanoyl)-3-fluoropiperidin-4-yl)-3-((6-fluoropyridin-3-yl)amino)-1H-pyrazole-4-carboxamide], the IC50 was found to be 0.9 nM. Under `N#CCC1(n2cc(C(N)=O)c(Nc3ccccc3)n2)CN(C(=O)c2ccccn2)C1` [Example 34-38, 1-[3-(cyanomethyl)-1-(pyridin-2-ylcarbonyl)azetidin-3-yl]-3-(phenylamino)-1H-pyrazole-4-carboxamide] stands 59 nM; under `N#CCC1(n2cc(C(N)=O)c(Nc3ccnc(F)c3)n2)CCC(NCc2cccc(O)c2)CC1` (stereo not drawn) [Example 41-5, Cis or trans 1-{1-(cyanomethyl)-4-[(3-hydroxybenzyl)amino]cyclohexyl}-3-[(2-fluoropyridin-4-yl)amino]-1H-pyrazole-4-carboxamide], 10 nM.

Regarding `N#CCC1(n2cc(C(N)=O)c(Nc3ccnc(F)c3)n2)CCN(C(=O)OC2CCOC2)CC1` (single isomer, unassigned) [Example 49-1, (3S or 3R)-tetrahydrofuran-3-yl 4-{4-carbamoyl-3-[(2-fluoropyridin-4-yl)amino]-1H-pyrazol-1-yl}-4-(cyanomethyl)piperidine-1-carboxylate], the IC50 is 0.6 nM. In the case of `N#CCC1(n2cc(C(N)=O)c(Nc3ccc(F)cc3)n2)CCC(NCCO)CC1` (stereo not drawn) [Example 40-68, Cis or trans 1-{1-(cyanomethyl)-4-[(2-hydroxyethyl)amino]cyclohexyl}-3-[(4-fluorophenyl)amino]-1H-pyrazole-4-carboxamide], the IC50 amounted to 69 nM. For the compound `CC(OC(=O)N1CCC(CC#N)(n2cc(C(N)=O)c(Nc3ccc(F)cc3)n2)CC1)C1CC1` (stereo not shown) [Example 30-12, 1-cyclopropylethyl 4-(4-carbamoyl-3-(4-fluorophenylamino)-1H-pyrazol-1-yl)-4-(cyanomethyl)piperidine-1-carboxylate], the 50% inhibitory concentration (IC50) stood at 6 nM. On to `CN1CCN(CCOC(=O)N2CC(CC#N)(n3cc(C(N)=O)c(Nc4ccccc4)n3)C2)CC1` [Example 30-72, 2-(4-methylpiperazin-1-yl)ethyl 3-[4-carbamoyl-3-(phenylamino)-1H-pyrazol-1-yl]-3-(cyanomethyl)azetidine-1-carboxylate], for which the half-inhibitory concentration (IC50) is 72 nM.

As to `N#CCC1(n2cc(C(N)=O)c(Nc3ccnc(F)c3)n2)CCC(Nc2ccccn2)CC1` (stereo not drawn) [Example 40-22, Cis or trans 1-[1-(cyanomethyl)-4-(pyridin-2-ylamino)cyclohexyl]-3-[(2-fluoropyridin-4-yl)amino]-1H-pyrazole-4-carboxamide], the IC50 amounted to 4 nM. Under `N#CCC1(n2cc(C(N)=O)c(Nc3ccccc3)n2)CN(C(=O)OC2CCOCC2)C1` [Example 30-63, tetrahydro-2H-pyran-4-yl 3-[4-carbamoyl-3-(phenylamino)-1H-pyrazol-1-yl]-3-(cyanomethyl)azetidine-1-carboxylase] stands 11 nM; under `COc1cc(Nc2nn(C3(CC#N)CCN(C(=O)OC(C)(C)C)CC3)cc2C(N)=O)ccn1` [Example 9-19, tert-butyl 4-{4-carbamoyl-3-[(2-methoxypyridin-4-yl)amino]-1H-pyrazol-1-yl}-4-(cyanomethyl)piperidine-1-carboxylate], 6 nM; under `N#CCC1(n2cc(C(N)=O)c(Nc3ccnc(F)c3)n2)CCN(C(=O)OC2CCOC2)CC1` (stereo not shown) [Example 30-16, tetrahydrofuran-3-yl 4-{4-carbamoyl-3-[(2-fluoropyridin-4-yl)amino]-1H-pyrazol-1-yl}-4-(cyanomethyl)piperidine-1-carboxylate], 0.9 nM. For the compound `N#CCC1(n2cc(C(N)=O)c(Nc3ccc(F)cc3)n2)CCN(C(=O)CC(F)(F)F)CC1` [Example 35-1, 1-(4-(Cyanomethyl)-1-(3,3,3-trifluoropropanoyl)piperidin-4-yl)-3-(4-fluorophenylamino)-1H-pyrazole-4-carboxamide], the IC50 worked out at 0.1 nM.

For `N#CCC1(n2cc(C(N)=O)c(Nc3ccnc(F)c3)n2)CCC(Nc2ccccc2F)CC1` (stereo not drawn) [Example 40-17, Cis or trans 1-{1-(cyanomethyl)-4-[(2-fluorophenyl)amino]cyclohexyl}-3-[(2-fluoropyridin-4-yl)amino]-1H-pyrazole-4-carboxamide], the IC50 amounted to 0.04 nM. Under `N#CCC1(n2cc(C(N)=O)c(Nc3ccc(S(=O)(=O)C(F)F)cc3)n2)CCC(N2CC(F)C2)CC1` (stereo not drawn) [Example 40-91, Cis or trans 1-[1-(cyanomethyl)-4-(3-fluoroazetidin-1-yl)cyclohexyl]-3-({4-[(difluoromethyl)sulfonyl]phenyl}amino)-1H-pyrazole-4-carboxamide] stands 67 nM; under `N#CCC1(n2cc(C(N)=O)c(Nc3ccnc(F)c3)n2)CCC(N2CCC(O)CC2)CC1` (stereo not drawn) [Example 40-13, Cis or trans 1-[1-(cyanomethyl)-4-(4-hydroxypiperidin-1-yl)cyclohexyl]-3-[(2-fluoropyridin-4-yl)amino]-1H-pyrazole-4-carboxamide], 115 nM; under `Cc1cccc(N2CCC(CC#N)(n3cc(C(N)=O)c(Nc4ccc(F)cc4)n3)CC2)n1` [Example 3-20, 1-[4-(cyanomethyl)-1-(6-methylpyridin-2-yl)piperidin-4-yl]-3-[(4-fluorophenyl)amino]-1H-pyrazole-4-carboxamide], 5 nM. Regarding `Cc1ccc(F)cc1NC(=O)N1CC(CC#N)(n2cc(C(N)=O)c(Nc3ccccc3)n2)C1` [Example 38-38, 1-{3-(cyanomethyl)-1-[(5-fluoro-2-methylphenyl)carbamoyl]azetidin-3-yl}-3-(phenylamino)-1H-pyrazole-4-carboxamide], the IC50 was 13 nM. The value for `N#CCC1(n2cc(C(N)=O)c(Nc3ccccc3)n2)CN(C(=O)OCCc2cccc3ccccc23)C1` [Example 30-54, 2-naphthalen-1-ylethyl 3-[4-carbamoyl-3-(phenylamino)-1H-pyrazol-1-yl]-3-(cyanomethyl)azetidine-1-carboxylate] was 375 nM.

A word on the IC50: it is the concentration that inhibits the measured activity by half.
